Converted amounts (≈) assume the structure as drawn. The source made the active and inactive calls. No cut-off for these calls is given here.
Legend:
[1] = test system: Mycobacterium tuberculosis; assay: Antimycobacterial activity against Mycobacterium tuberculosis H37Ra after 24 hrs by microtiter alamar blue assay; format: functional
[2] = test system: Mycobacterium tuberculosis; assay: Antimycobacterial activity against Mycobacterium tuberculosis H37Ra at 200 ug/ml after 24 hrs by microtiter alamar blue assay; format: functional, organism-based
[3] = test system: Mycobacterium tuberculosis; assay: Antimycobacterial activity against Pan-sensitive Mycobacterium tuberculosis H37Ra after 24 hrs by microtiter alamar blue assay; format: functional

Row | SMILES | MIC [1] [µg/mL] | MIC [2] | MIC [3] [µg/mL]
1 | COc1cc(/C=C/C(=O)CC(=O)/C=C/c2ccc(O)c(OC)c2)ccc1O [CURCUMIN] | 100 (≈ 271 µM) | – | –
2 | COc1cc(/C=C/C(=O)CC(=O)/C=C/c2ccc(O)cc2)ccc1OC(C)=O | 50 (≈ 131 µM) | – | –
3 | COc1cc(/C=C/C=C/C(=O)CCc2ccc(O)c(OC)c2)ccc1O | 25 (≈ 70.5 µM) | – | –
4 | NNC(=O)c1ccncc1 [ISONIAZID] | 0.06 (≈ 0.438 µM) | – | –
5 | C=CCOc1ccc(/C=C/C(=O)CC(=O)/C=C/c2ccc(OCC=C)c(OC)c2)cc1OC | – | inactive | –
6 | COc1cc(/C=C/c2cc(/C=C/c3ccc(O)cc3)[nH]n2)ccc1O | 100 (≈ 299 µM) | – | –
7 | O=C(/C=C/c1ccc(O)cc1)CC(=O)/C=C/c1ccc(O)cc1 [BISDEMETHOXYCURCUMIN] | 25 (≈ 81.1 µM) | – | –
8 | COc1cc(/C=C/C(O)=C/C(=O)/C=C/c2ccc(O)cc2)ccc1O [DEMETHOXYCURCUMIN] | 50 (≈ 148 µM) | – | –
9 | COc1cc(CCc2cc(CCc3ccc(O)c(OC)c3)on2)ccc1O | 100 (≈ 271 µM) | – | –
10 | CC(=O)Oc1ccc(/C=C/C(=O)CC(=O)/C=C/c2ccc(O)cc2)cc1 | 25 (≈ 71.4 µM) | – | –
11 | COc1cc(/C=C/C(=O)CC(=O)/C=C/c2ccc(OC(C)=O)c(OC)c2)ccc1OC(C)=O | 200 (≈ 442 µM) | – | –
12 | COc1cc(/C=C/C(=O)CC(=O)/C=C/c2ccc(OCCO)c(OC)c2)ccc1OCCO | 200 (≈ 438 µM) | – | –
13 | COc1cc(/C=C/c2cc(/C=C/c3ccc(OC(C)=O)c(OC)c3)on2)ccc1OC(C)=O | 1.56 (≈ 3.47 µM) | – | –
14 | COc1cc(/C=C/C(=O)CC(=O)/C=C/c2ccc(OC)c(OC)c2)ccc1O | 50 (≈ 131 µM) | – | –
15 | Oc1ccc(/C=C/c2cc(/C=C/c3ccc(O)cc3)[nH]n2)cc1 | 25 (≈ 82.1 µM) | – | –
16 | COc1cc(/C=C/c2cc(/C=C/c3ccc(OC)c(OC)c3)no2)ccc1O | 0.09 (≈ 0.237 µM) | – | 0.09 (≈ 0.237 µM)
17 | COc1cc(/C=C/C(=O)CC(=O)/C=C/c2ccc(OC(C)=O)cc2)ccc1OC(C)=O | 100 (≈ 237 µM) | – | –
18 | COc1cc(/C=C/C(=O)CC(=O)/C=C/c2ccc(OCCO)c(OC)c2)ccc1O | 200 (≈ 485 µM) | – | –
19 | COc1cc(/C=C/C(=O)CC(=O)/C=C/c2ccc(O)c(O)c2)ccc1O | 200 (≈ 564 µM) | – | –
20 | COc1cc(CC/C=C/C(=O)CCc2ccc(O)c(OC)c2)ccc1O | 25 (≈ 70.1 µM) | – | –
21 | COc1ccc(/C=C/c2cc(/C=C/c3ccc(OC)c(OC)c3)on2)cc1OC | 0.39 (≈ 0.991 µM) | – | –
22 | CO[C@H]1/C=C/O[C@@]2(C)Oc3c(C)c(O)c4c(O)c(c(/C=N/N5CCN(C)CC5)c(O)c4c3C2=O)NC(=O)/C(C)=C\C=C\[C@H](C)[C@H](O)[C@@H](C)[C@@H](O)[C@@H](C)[C@H](OC(C)=O)[C@@H]1C [RIFAMPIN] | 0.004 (≈ 0.00486 µM) | – | –
23 | COc1cc(/C=C/C(=O)CC(=O)/C=C/c2ccc(OC(C)=O)c(OC)c2)ccc1O | 100 (≈ 244 µM) | – | –
24 | CCCOc1ccc(/C=C/C(=O)CC(=O)/C=C/c2ccc(OCCC)c(OC)c2)cc1OC | 200 (≈ 442 µM) | – | –
25 | O=C(/C=C/c1ccc(O)c(O)c1)CC(=O)/C=C/c1ccc(O)c(O)c1 [DIDEMETHYLCURCUMIN] | 100 (≈ 294 µM) | – | –
26 | CCCCCOc1ccc(/C=C/C(=O)CC(=O)/C=C/c2ccc(O)c(OC)c2)cc1OC | 12.5 (≈ 28.5 µM) | – | –
27 | COc1cc(/C=C/c2cc(CCc3ccc(O)c(OC)c3)on2)ccc1O | 6.25 (≈ 17 µM) | – | –

Row | SMILES | MIC [1] [µg/mL] | MIC [2] | MIC [3] [µg/mL]
28 | COc1ccc(/C=C/C(=O)CC(=O)/C=C/c2ccc(OC)c(OC)c2)cc1OC [TETRAMETHOXYCURCUMIN] | 100 (≈ 252 µM) | – | –
29 | COc1cc(/C=C/c2cc(/C=C/c3ccc(OC)c(OC)c3)on2)ccc1O | 0.78 (≈ 2.06 µM) | – | 0.78 (≈ 2.06 µM)
30 | COc1cc(/C=C/C(=O)/C=C/CCc2ccc(O)c(OC)c2)ccc1O | 12.5 (≈ 35.3 µM) | – | –
31 | C=CCOc1ccc(/C=C/C(=O)CC(=O)/C=C/c2ccc(O)c(OC)c2)cc1OC | 100 (≈ 245 µM) | – | –
32 | COc1cc(/C=C/c2cc(/C=C/c3ccc(O)c(OC)c3)[nH]n2)ccc1O [CURCUMIN PYRAZOLE] | 200 (≈ 549 µM) | – | –
33 | COc1cc(/C=C/c2cc(/C=C/c3ccc(OC(C)=O)c(OC)c3)no2)ccc1O | 1.56 (≈ 3.83 µM) | – | –
34 | CCCCCOc1ccc(/C=C/C(=O)CC(=O)/C=C/c2ccc(OCCCCC)c(OC)c2)cc1OC | 100 (≈ 197 µM) | – | –
35 | COc1cc(CCC(=O)CC(=O)CCc2ccc(O)c(OC)c2)ccc1O [TETRAHYDROCURCUMIN] | 50 (≈ 134 µM) | – | –
36 | COc1cc(CCC(=O)CC(O)CCc2ccc(O)c(OC)c2)ccc1O (stereo not drawn) [HEXAHYDROCURCUMIN] | 100 (≈ 267 µM) | – | –
37 | CCCOc1ccc(/C=C/C(=O)CC(=O)/C=C/c2ccc(O)c(OC)c2)cc1OC | 25 (≈ 60.9 µM) | – | –
38 | CCCCCOc1ccc(/C=C/c2cc(/C=C/c3ccc(O)c(OC)c3)on2)cc1OC | 0.39 (≈ 0.895 µM) | – | 0.39 (≈ 0.895 µM)
39 | CCCCCOc1ccc(/C=C/c2cc(/C=C/c3ccc(OCCCCC)c(OC)c3)on2)cc1OC | – | inactive | –
40 | COc1cc(/C=C/c2cc(/C=C/c3ccc(O)c(OC)c3)on2)ccc1O | 1.56 (≈ 4.27 µM) | – | –
41 | O=C(/C=C/c1ccc(O)cc1)CC(=O)/C=C/c1ccc(O)c(O)c1 | 200 (≈ 617 µM) | – | –
42 | COc1cc(/C=C/C(=O)CC(=O)/C=C/c2ccc(OC(C)=O)cc2)ccc1O | 50 (≈ 131 µM) | – | –
43 | COc1cc(/C=C/c2cc(/C=C/c3ccc(OC(C)=O)c(OC)c3)on2)ccc1O | 1.56 (≈ 3.83 µM) | – | –
44 | Oc1ccc(/C=C/c2cc(/C=C/c3ccc(O)cc3)on2)cc1 | 12.5 (≈ 40.9 µM) | – | –
45 | CCCCCOc1ccc(/C=C/c2cc(/C=C/c3ccc(O)c(OC)c3)no2)cc1OC | 6.25 (≈ 14.4 µM) | – | 6.25 (≈ 14.4 µM)
46 | COc1ccc(/C=C/c2cc(/C=C/c3ccc(OC)cc3)on2)cc1 | – | inactive | –
47 | COc1cc(/C=C/c2cc(/C=C/c3ccc(O)c(OC)c3)n(-c3ccccc3)n2)ccc1O | 25 (≈ 56.8 µM) | – | –
48 | COc1cc(/C=C/C=C/C(=O)/C=C/c2ccc(O)c(OC)c2)ccc1O | 12.5 (≈ 35.5 µM) | – | –
49 | COc1cc(CCC(O)CC(O)CCc2ccc(O)c(OC)c2)ccc1O (stereo not drawn) | – | inactive | –
50 | COc1cc(/C=C/C(=O)CC(=O)CCc2ccc(O)c(OC)c2)ccc1O | 200 (≈ 540 µM) | – | –
51 | CC(=O)Oc1ccc(/C=C/C(=O)CC(=O)/C=C/c2ccc(OC(C)=O)cc2)cc1 | 25 (≈ 63.7 µM) | – | –
52 | NC[C@H]1O[C@H](O[C@H]2[C@H](O)[C@@H](O[C@H]3O[C@H](CO)[C@@H](O)[C@H](N)[C@H]3O)[C@H](N)C[C@@H]2N)[C@H](O)[C@@H](O)[C@@H]1O [KANAMYCIN] | 2.5 (≈ 5.16 µM) | – | –
53 | COc1cc(CCCCC(=O)CCc2ccc(O)c(OC)c2)ccc1O | 100 (≈ 279 µM) | – | –
54 | Oc1ccc(/C=C/c2cc(/C=C/c3ccc(O)c(O)c3)on2)cc1O | 200 (≈ 593 µM) | – | –

Reference: ChEMBL document CHEMBL1250481, “Isoxazole analogs of curcuminoids with highly potent multidrug-resistant antimycobacterial activity” (2010)
